Laboratory results from BindingDB's records for doi:10.7270/Q2XS5SSN (Nmmlsc, 2010).

What follows are molecules tested against T1, GTPase KRas [1-37] (Homo sapiens, UniProt G3V5T7) (assay: Ras wt fluorescent GTP loading blockade – biochemical, wildtype, multiplex bead flow cytometry, dose response (AID 1335)).
T1 construct: 1-37
T1 sequence (G3V5T7 whole entry): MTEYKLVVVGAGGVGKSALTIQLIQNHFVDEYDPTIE

Row | Compound | EC50
1 | Cc1ccc(-n2c(=O)cc(N3CCc4ccccc4C3)[nH]c2=O)cc1 | 43.7 µM
2 | CC1(C)Cc2c(sc(NC(=S)NC(=O)c3ccccc3)c2C(=O)O)CO1 [2-(benzoylcarbamothioylamino)-5,5-dimethyl-4,7-dihydrothieno[2,3-c]pyran-3-carboxylic acid] | 0.0993 µM
3 | CCn1cc(C=C2C(=O)c3ccccc3C2=O)c2ccccc21 [2-[(1-ethyl-3-indolyl)methylidene]indene-1,3-dione] | 7.96 µM
4 | Cc1cc(NC(=O)CSc2nc(O)c(C#N)c(-c3ccccc3)n2)no1 [2-[(5-cyano-4-oxidanylidene-6-phenyl-1H-pyrimidin-2-yl)sulfanyl]-N-(5-methyl-1,2-oxazol-3-yl)ethanamide] | 8.92 µM
5 | CCN1C(c2ccccc2)=C(c2ccccc2)S/C1=C/C=C1\SC(=S)N(C)C1=O [(5Z)-5-[(2E)-2-(3-ethyl-4,5-diphenyl-1,3-thiazol-2-ylidene)ethylidene]-3-methyl-2-sulfanylidene-1,3-thiazolidin-4-one] | 33.6 µM
6 | CCS(=O)(=O)N1N=C(c2cccc(NS(C)(=O)=O)c2)CC1c1ccc(C)cc1 (stereo not given) [MLS000680398] | 2.61 µM

Next, values leading:

Row | EC50 | Compound
7 | 3.66 µM | Cc1cc(C(=O)Oc2ccccc2C(=O)O)c(C)o1 [2-(2,5-dimethyl-3-furoyl)oxybenzoic acid]
8 | 0.109 µM | O=C(O)c1ccccc1OCc1ccccc1Br [2-(2-bromobenzyl)oxybenzoic acid]
9 | 0.0782 µM | Cc1cc(C(=O)O)sc1CNCc1ccccc1Cl [5-[[(2-chlorobenzyl)amino]methyl]-4-methyl-2-thenoic acid]
10 | 4.03 µM | O=C(O)/C=C/c1cn(Cc2ccccc2)nc1-c1cccs1 [(E)-3-(1-benzyl-3-thiophen-2-ylpyrazol-4-yl)prop-2-enoic acid]
